Test results from the supplement of paper PMC10307832.

Each cell line was assayed with Cc1ccc(C(=O)Nc2ccc(CN3CCN(C)CC3)c(C(F)(F)F)c2)cc1C#Cc1cnc2cccnn12 [Ponatinib] + NC(=O)Nc1cc(-c2cccc(F)c2)sc1C(=O)N[C@H]1CCCNC1 [AZD7762] (partner 0.2 µM) (assay: relative viability (nuclei count vs DMSO), 5 days (fraction); higher = more cells survive). Conditions: first compound 0.002 µM.
In short: (§1)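 Relative viability equals treated-well nuclei counts divided by vehicle-well nuclei counts. Counts came from 4× images of lung cancer cell lines grown in 1536-well plates for 5 days after pin-tool dosing on the day after seeding. Dosing used one drug alone or a fixed anchor-drug dose plus five library-drug doses (not always all listed) in √10 steps, and values are medians of duplicate plates.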

Q: For LU99A, which relative viability is on record?
A: 0.308

Q: How did the relative viability turn out when BEN was run?
A: 0.494

Q: Which relative viability does the source give for HARA here?
A: 0.382

Q: Which relative viability does the source give for HCC-78 here?
A: 0.52

Q: Which relative viability does the source give for NCI-H441 here?
A: 1.18

Q: For LCLC-97TM1, which relative viability is on record?
A: 0.141

Q: Which relative viability does the source give for A-427 here?
A: 0.713

Q: For NCI-H460, which relative viability is on record?
A: 0.478

Q: Which relative viability does the source give for NCI-H727 here?
A: 0.508

Q: How did the relative viability turn out when NCI-H1734 was run?
A: 0.514

Q: How did the relative viability turn out when NCI-H2405 was run?
A: 0.622

Q: For NCI-H1793, which relative viability is on record?
A: 0.406

Q: 201T was tested. Which relative viability did it give?
A: 0.557

Q: For NCI-H1915, which relative viability is on record?
A: 0.553

Q: How did the relative viability turn out when HCC-827 was run?
A: 0.185

Q: Which relative viability does the source give for LXF-289 here?
A: 1.03

Q: For NCI-H23, which relative viability is on record?
A: 0.266

Q: For NCI-H650, which relative viability is on record?
A: 0.695

Q: For CAL-12T, which relative viability is on record?
A: 0.548

Q: With NCI-H1651 as the cell line, how does the relative viability read?
A: 0.336

Q: Which relative viability does the source give for EPLC-272H here?
A: 0.242

Q: NCI-H1355 was tested. Which relative viability did it give?
A: 0.696

Q: With NCI-H322M as the cell line, how does the relative viability read?
A: 0.566

Q: Which relative viability does the source give for NCI-H1437 here?
A: 1.02

Q: With NCI-H1755 as the cell line, how does the relative viability read?
A: 0.409

Q: How did the relative viability turn out when HCC-15 was run?
A: 1.18

Q: NCI-H1944 was tested. Which relative viability did it give?
A: 0.454

Q: How did the relative viability turn out when EKVX was run?
A: 0.7

Q: LC-2-ad was tested. Which relative viability did it give?
A: 0.833

Q: With NCI-H2170 as the cell line, how does the relative viability read?
A: 0.799

Q: With NCI-H1975 as the cell line, how does the relative viability read?
A: 0.599

Q: For ABC-1, which relative viability is on record?
A: 0.828

Q: For RERF-LC-KJ, which relative viability is on record?
A: 0.838

Same assay, conditions: first compound 0.006325 µM

Q: How did the relative viability turn out when LU99A was run?
A: 0.421

Q: For BEN, which relative viability is on record?
A: 0.625

Q: How did the relative viability turn out when HARA was run?
A: 0.351

Q: How did the relative viability turn out when HCC-78 was run?
A: 0.537

Q: How did the relative viability turn out when NCI-H441 was run?
A: 1.19

Q: For LCLC-97TM1, which relative viability is on record?
A: 0.264

Q: For A-427, which relative viability is on record?
A: 0.73

Q: Which relative viability does the source give for NCI-H460 here?
A: 0.552

Q: With NCI-H727 as the cell line, how does the relative viability read?
A: 0.575

Q: How did the relative viability turn out when NCI-H1734 was run?
A: 0.516

Q: With NCI-H2405 as the cell line, how does the relative viability read?
A: 0.73

Q: For NCI-H1793, which relative viability is on record?
A: 0.466

Q: For 201T, which relative viability is on record?
A: 0.546

Q: Which relative viability does the source give for NCI-H1915 here?
A: 0.697

Q: Which relative viability does the source give for HCC-827 here?
A: 0.216

Q: For LXF-289, which relative viability is on record?
A: 1.13

Q: Which relative viability does the source give for NCI-H23 here?
A: 0.244

Q: With NCI-H650 as the cell line, how does the relative viability read?
A: 0.92

Q: With CAL-12T as the cell line, how does the relative viability read?
A: 0.554

Q: NCI-H1651 was tested. Which relative viability did it give?
A: 0.465

Q: EPLC-272H was tested. Which relative viability did it give?
A: 0.175

Q: How did the relative viability turn out when NCI-H1355 was run?
A: 0.742

Q: NCI-H322M was tested. Which relative viability did it give?
A: 0.483

Q: With NCI-H1437 as the cell line, how does the relative viability read?
A: 1.07

Q: Which relative viability does the source give for NCI-H1755 here?
A: 0.379

Q: For HCC-15, which relative viability is on record?
A: 1.19

Q: For NCI-H1944, which relative viability is on record?
A: 0.489

Q: Which relative viability does the source give for PC-3 [JPC-3] here?
A: 0.901

Q: EKVX was tested. Which relative viability did it give?
A: 0.766

Q: Which relative viability does the source give for LC-2-ad here?
A: 0.858

Q: With NCI-H2170 as the cell line, how does the relative viability read?
A: 0.927

Q: How did the relative viability turn out when NCI-H1975 was run?
A: 0.706

Q: How did the relative viability turn out when ABC-1 was run?
A: 0.878

Q: How did the relative viability turn out when RERF-LC-KJ was run?
A: 0.951

Same assay, conditions: first compound 0.06325 µM

Q: For LU99A, which relative viability is on record?
A: 0.399

Q: Which relative viability does the source give for BEN here?
A: 0.589

Q: Which relative viability does the source give for HARA here?
A: 0.31

Q: For HCC-78, which relative viability is on record?
A: 0.669

Q: With NCI-H441 as the cell line, how does the relative viability read?
A: 1.35

Q: Which relative viability does the source give for LCLC-97TM1 here?
A: 0.289

Q: Which relative viability does the source give for A-427 here?
A: 0.593

Q: Which relative viability does the source give for NCI-H460 here?
A: 0.564

Q: NCI-H727 was tested. Which relative viability did it give?
A: 0.567

Q: With NCI-H1734 as the cell line, how does the relative viability read?
A: 0.418

Q: With NCI-H2405 as the cell line, how does the relative viability read?
A: 0.705

Q: For NCI-H1793, which relative viability is on record?
A: 0.282

Q: Which relative viability does the source give for 201T here?
A: 0.38

Q: For NCI-H1915, which relative viability is on record?
A: 0.591

Q: Which relative viability does the source give for HCC-827 here?
A: 0.182

Q: LXF-289 was tested. Which relative viability did it give?
A: 1.19

Q: How did the relative viability turn out when NCI-H23 was run?
A: 0.237

Q: How did the relative viability turn out when NCI-H650 was run?
A: 0.981

Q: Which relative viability does the source give for CAL-12T here?
A: 0.611

Q: For NCI-H1651, which relative viability is on record?
A: 0.458

Q: For EPLC-272H, which relative viability is on record?
A: 0.204

Q: NCI-H1355 was tested. Which relative viability did it give?
A: 0.829

Q: With NCI-H322M as the cell line, how does the relative viability read?
A: 0.543

Q: How did the relative viability turn out when NCI-H1437 was run?
A: 1.17

Q: For NCI-H1755, which relative viability is on record?
A: 0.381

Q: For HCC-15, which relative viability is on record?
A: 1.32

Q: NCI-H1944 was tested. Which relative viability did it give?
A: 0.543

Q: For PC-3 [JPC-3], which relative viability is on record?
A: 1

Q: With EKVX as the cell line, how does the relative viability read?
A: 0.673

Q: For LC-2-ad, which relative viability is on record?
A: 0.977

Q: How did the relative viability turn out when NCI-H2170 was run?
A: 0.789

Q: For NCI-H1975, which relative viability is on record?
A: 0.726

Q: ABC-1 was tested. Which relative viability did it give?
A: 0.755

Q: RERF-LC-KJ was tested. Which relative viability did it give?
A: 1.13

Same assay, conditions: first compound 0.2 µM

Q: Which relative viability does the source give for LU99A here?
A: 0.48

Q: Which relative viability does the source give for BEN here?
A: 0.774

Q: For HARA, which relative viability is on record?
A: 0.356

Q: With HCC-78 as the cell line, how does the relative viability read?
A: 0.647

Q: Which relative viability does the source give for NCI-H441 here?
A: 1.14

Q: How did the relative viability turn out when LCLC-97TM1 was run?
A: 0.28

Q: With A-427 as the cell line, how does the relative viability read?
A: 0.582

Q: NCI-H460 was tested. Which relative viability did it give?
A: 0.576

Q: For NCI-H727, which relative viability is on record?
A: 0.576

Q: With NCI-H1734 as the cell line, how does the relative viability read?
A: 0.461

Q: How did the relative viability turn out when NCI-H2405 was run?
A: 0.542

Q: NCI-H1793 was tested. Which relative viability did it give?
A: 0.178

Q: With 201T as the cell line, how does the relative viability read?
A: 0.371

Q: How did the relative viability turn out when NCI-H1915 was run?
A: 0.651

Q: Which relative viability does the source give for HCC-827 here?
A: 0.253

Q: For LXF-289, which relative viability is on record?
A: 1.1

Q: With NCI-H23 as the cell line, how does the relative viability read?
A: 0.14

Q: Which relative viability does the source give for NCI-H650 here?
A: 0.572

Q: With CAL-12T as the cell line, how does the relative viability read?
A: 0.5

Q: With NCI-H1651 as the cell line, how does the relative viability read?
A: 0.509

Q: EPLC-272H was tested. Which relative viability did it give?
A: 0.234

Q: How did the relative viability turn out when NCI-H1355 was run?
A: 0.717

Q: How did the relative viability turn out when NCI-H322M was run?
A: 0.448

Q: How did the relative viability turn out when NCI-H1437 was run?
A: 1.03

Q: How did the relative viability turn out when NCI-H1755 was run?
A: 0.362

Q: Which relative viability does the source give for HCC-15 here?
A: 1.31

Q: NCI-H1944 was tested. Which relative viability did it give?
A: 0.664

Q: With PC-3 [JPC-3] as the cell line, how does the relative viability read?
A: 0.873

Q: For EKVX, which relative viability is on record?
A: 0.606

Q: Which relative viability does the source give for LC-2-ad here?
A: 0.872

Q: How did the relative viability turn out when NCI-H2170 was run?
A: 0.833

Q: With NCI-H1975 as the cell line, how does the relative viability read?
A: 0.615

Q: For ABC-1, which relative viability is on record?
A: 0.663

Q: RERF-LC-KJ was tested. Which relative viability did it give?
A: 0.961

What follows are cell lines tested with Cc1ccc(C(=O)Nc2ccc(CN3CCN(C)CC3)c(C(F)(F)F)c2)cc1C#Cc1cnc2cccnn12 [Ponatinib] + COc1cc2c(Oc3ccc(NC(=O)C4(C(=O)Nc5ccc(F)cc5)CC4)cc3F)ccnc2cc1OCCCN1CCOCC1 [Foretinib] (partner 0.25 µM) in the same assay as above. Conditions: first compound 0.002 µM.
In short: as §1

Q: Which relative viability does the source give for LU99A here?
A: 0.781

Q: BEN was tested. Which relative viability did it give?
A: 0.549

Q: With HARA as the cell line, how does the relative viability read?
A: 0.859

Q: For HCC-78, which relative viability is on record?
A: 0.521

Q: Which relative viability does the source give for NCI-H441 here?
A: 1.14

Q: With LCLC-97TM1 as the cell line, how does the relative viability read?
A: 0.915

Q: For A-427, which relative viability is on record?
A: 1

Q: Which relative viability does the source give for NCI-H460 here?
A: 0.92
